Patent publication US6638967B2, “Thiophene of furan pyrrolidine compounds” (Ortho-McNeil Phamraceutical, Inc., priority 2000, dated 2003)
Structures can show the parent of a compound that is named as a salt.

Biological target: T1, human histamine H3 receptor (Homo sapiens, UniProt Q9Y5N1)
T1 construct: One microgram of supercoiled H3 receptor cDNA was added to the cells and mixed; expressed in transfected cells
Experiment: [3H]-N-methylhistamine binding
Conditions: membranes of histamine H3 receptor-expressing SK-N-MC cells, 0.8 nM [3H]-N-methylhistamine, 45 min at 25° C.
Method: Thus in the present invention receptor binding was determined using the human histamine H3 receptor (See Lovenberg et al Mol. Pharmacol. 1999, 1107). Screening using the human receptor is particularly important for the identification of new therapies for the treatment of human disease. Conventional binding assays for example are determined using rat synaptosomes (Garbarg et al J. Pharmacol. Exp. Ther. 1992, 263, 304), rat cortical membranes (West et al Mol. Pharmacol. 1990, 610), and guinea pig brain (Korte et al Biochem. Biophys. Res. Commun. 1990, 978). Only limited studies have been performed previously using human tissue but these allude to significant differences in the pharmacology of rodent and primate receptors (West et al Eur. J. Pharmacol. 1999, 233).
Transfection of Cells With Human Histamine Receptor
A 10 cm tissue culture dish with a confluent monolayer of SK-N-MC cells was split two days prior to transfection. Using sterile technique the media was removed and the cells were detached from the dish by the addition of trypsin. One fifth of the cells were then placed onto a new 10 cm dish. Cells were grown in a 37° C. incubator with 5% CO2 in Minimal Essential Media Eagle with 10% Fetal Bovine Serum. After two days cells were approximately 80% confluent. These were removed from the dish with trypsin and pelleted in a clinical centrifuge. The pellet was then re-suspended in 400 μL complete media and transferred to an electroporation cuvette with a 0.4 cm gap between the electrodes (Bio-Rad #165-2088). One microgram of supercoiled H3 receptor cDNA was added to the cells and mixed. The voltage for the electroporation was set at 0.25 kV; the capacitance was set at 960 μF. After electroporation the cells were diluted into 10 mL complete media and plated onto four 10 cm dishes. Because of the variability in the efficiency of electroporation, four different concentrations of cells were plated. The ratios used were; 1:20, 1:10, 1:5, with the remainder of the cells being added to the fourth dish. The cells were allowed to recover for 24 hours before adding the selection media (complete media with 600 μg/mL G418). After 10 days dishes were analyzed for surviving colonies of cells. Dishes with well isolated colonies were used. Cells from individual colonies were isolated and tested. SK-N-MC cells were used because they give efficient coupling for inhibition of adenylate cyclase. The clones that gave the most robust inhibition of adenylate cyclase in response to histamine were used for further study.
[^3H]-N-methylhistamine binding
Cell pellets from histamine H3 receptor-expressing SK-N-MC cells were homogenized in 20 mM TrisHCI/0.5 mM EDTA. Supernatants from a 800 g spin were collected, recentrifuged at 30,000 g for 30 minutes. Pellets were re-homogenized in 50 mM Tris/5 mM EDTA (pH 7.4). Membranes were incubated with 0.8 nM [^3H]-N-methylhistamine plus/minus test compounds for 45 min at 25° C. and harvested by rapid filtration over GF/C glass fiber filters (pretreated with 0.3 % polyethylenimine) followed by four washes with ice cold buffer. Filters were dried, added to 4 mL scintillation cocktail and then counted on a liquid scintillation counter. Non-specific binding was defined with 10 μM histamine. The pKi values were calculated based on a Kd of 800 pM and a ligand concentration ([L]) of 800 pM according to the formula: […]

T1 sequence (Q9Y5N1 whole entry): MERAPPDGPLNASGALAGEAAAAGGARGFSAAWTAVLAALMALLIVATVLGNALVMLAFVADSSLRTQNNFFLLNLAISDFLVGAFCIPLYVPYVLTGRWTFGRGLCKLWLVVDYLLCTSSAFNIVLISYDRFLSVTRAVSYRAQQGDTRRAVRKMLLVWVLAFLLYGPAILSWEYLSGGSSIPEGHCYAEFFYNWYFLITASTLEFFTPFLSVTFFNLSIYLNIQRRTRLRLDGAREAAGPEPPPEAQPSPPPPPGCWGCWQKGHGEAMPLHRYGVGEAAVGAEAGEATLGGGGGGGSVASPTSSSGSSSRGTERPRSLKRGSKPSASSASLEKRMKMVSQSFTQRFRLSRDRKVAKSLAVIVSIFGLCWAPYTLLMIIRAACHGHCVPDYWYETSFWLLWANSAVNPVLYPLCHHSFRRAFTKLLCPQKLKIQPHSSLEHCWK

SMILES	Ki [nM]
c1cc(-c2ccc(CN3CCCC3)s2)ccc1CN1CCCC1 [Example 1]	9
c1cc(-c2ccc(CN3CCCC3)o2)ccc1CN1CCCC1 [Example 2]	0.41
c1cc(-c2ccc(CN3CCCC3)s2)sc1CN1CCCC1 [Example 3]	1.4
c1cc(CN2CCCC2)c(-c2ccc(CN3CCCC3)cc2)s1 [Example 4, 1-[(2-(4-Pyrrolidin-1-ylmethyl-phenyl)-thiophen)-3-ylmethyl]-pyrrolidine]	9
c1cc(-c2ccc(CN3CCCC3)cc2)c(CN2CCCC2)s1 [Example 5, 1-[(3-(4-Pyrrolidin-1-ylmethyl-phenyl)-thiophen)-2-ylmethyl]-pyrrolidine]	63
c1cc(Oc2ccc(CN3CCCC3)cc2)ccc1CN1CCCC1 [Example 6]	0.5
c1cc(Oc2ccc(CN3CCCCC3)cc2)ccc1CN1CCCCC1 [Example 7]	0.66
O=S(=O)(c1ccc(CN2CCCC2)cc1)c1ccc(CN2CCCC2)cc1 [Example 8]	2.5
c1cc(CN2CCCC2)ccc1Cc1ccc(CN2CCCC2)cc1 [Example 9]	2
c1cn(Cc2ccc(Oc3ccc(Cn4ccnc4)cc3)cc2)cn1 [Example 10]	151
c1cn(Cc2ccc(Cc3ccc(Cn4ccnc4)cc3)cc2)cn1 [Example 11]	150
C/N=C(\NC)SCc1ccc(Oc2ccc(CS/C(=N/C)NC)cc2)cc1 [Example 12]	85
CNC(=N)SCc1ccc(Oc2ccc(CSC(=N)NC)cc2)cc1 [Example 13]	629
c1cc(Oc2ccc(CSC3=NCCS3)cc2)ccc1CSC1=NCCS1 [Example 15, 2-[4-(4-(2Thiazolin)-2-ylthiomethyl-phenoxy-)-benzyl-thio]-2-thiazoline]	2570
Cn1ccnc1SCc1ccc(Oc2ccc(CSc3nccn3C)cc2)cc1 [Example 16, 2-[4-(4-(1Methyl-imidazo)-2-ylthiomethyl-phenoxy-)-benzyl-thio]-1-methyl-imidazole]	792
c1cc(Oc2ccc(CNC3=NCCN3)cc2)ccc1CNC1=NCCN1 [Example 17, 2-[4-(4-(2Imidazolin)-2-ylaminomethyl-phenoxy-)-benzyl-amino]-2-imidazolidone]	344
c1ccn(Cc2ccc(COc3ccc(CN4CCCC4)cc3)cc2)c1 [Example 20, 1-[4-(4Pyrrolidin1-ylmethyl-phenoxymethyl)-benzyl]-1H-pyrrole]	16
c1ccc(CN(c2ccc(CN3CCCC3)cc2)c2ccc(CN3CCCC3)cc2)cc1 [Example 23, Benzyl-bis-(4pyrrolidin1-ylmethyl-phenyl)-amine]	15
c1cc(N(CCCN2CCCCC2)c2ccc(CN3CCCC3)cc2)ccc1CN1CCCC1 [Example 24, (3Piperidin-1-yl-propyl)-bis-(4pyrrolidin1-ylmethyl-phenyl)-amine]	3.5
CN(C)CCN(c1ccc(CN2CCCC2)cc1)c1ccc(CN2CCCC2)cc1 [Example 25]	453
O=[N+]([O-])c1cc(CN2CCCCC2)ccc1Sc1ccc(N2CCCCC2)cc1 [Example 26, 1-[4-(4-Piperidine-phenylsulfanyl)-3-nitro-benzyl]-piperidine]	756
O=Cc1ccc(-c2ccc(CN3CCCC3)cc2)cc1 [Example 27, 4′-Pyrrolidin-1-ylmethyl-biphenyl-4-carbaldehyde]	8.7
ON=Cc1ccc(-c2ccc(CN3CCCC3)cc2)cc1 [Example 28, 4′-Pyrrolidin-1-ylmethyl-biphenyl-4-carbaldehyde oxime]	6.5
c1cc(CCN2CCCC2)ccc1CCc1ccc(CCN2CCCC2)cc1 [Example 29, 1-(2-{4-[2-(1-Phenethyl-pyrrolidine)-ethyl]-phenyl}-ethyl)-pyrrolidine]	26.6
c1cc(Cn2ccc(CN3CCCC3)c2)ccc1CN1CCCC1 [Example 30]	24.2
c1cc(CN2CCCC2)n(Cc2ccc(CN3CCCC3)cc2)c1 [Example 31]	3.2
CN(C)CCCSc1ccc(C(=O)c2ccc(SCCCN(C)C)cc2)cc1 [Example 32, Bis-[4-(3-dimethylamino-propylsulfanyl)-phenyl]methanone dihydrochloride]	14
CN(C)CCCOc1ccc(C(=O)c2ccc(O)cc2)cc1 [Example 33, [4-(3-Dimethylamino-propoxy)-phenyl]-(4-hydroxy-phenyl)-methanone]	129
CN(C)CCOc1ccc(C(=O)c2ccc(OCCN(C)C)cc2)cc1 [Example 34, Bis-[4-(2-dimethylamino-ethoxy)-phenyl]-methanone]	126
